According to publication PMC11066976 (Cell reports, 2023):
Read-outs that look alike come from different tables or passages of the source.

Key:
Experiment in all cases: compensated interferometric reader
transcobalamin 2 (TCN2) [1] = target: T1, transcobalamin 2 (TCN2) (Homo sapiens, UniProt P20062); format: binding
T1 sequence (P20062 19-427): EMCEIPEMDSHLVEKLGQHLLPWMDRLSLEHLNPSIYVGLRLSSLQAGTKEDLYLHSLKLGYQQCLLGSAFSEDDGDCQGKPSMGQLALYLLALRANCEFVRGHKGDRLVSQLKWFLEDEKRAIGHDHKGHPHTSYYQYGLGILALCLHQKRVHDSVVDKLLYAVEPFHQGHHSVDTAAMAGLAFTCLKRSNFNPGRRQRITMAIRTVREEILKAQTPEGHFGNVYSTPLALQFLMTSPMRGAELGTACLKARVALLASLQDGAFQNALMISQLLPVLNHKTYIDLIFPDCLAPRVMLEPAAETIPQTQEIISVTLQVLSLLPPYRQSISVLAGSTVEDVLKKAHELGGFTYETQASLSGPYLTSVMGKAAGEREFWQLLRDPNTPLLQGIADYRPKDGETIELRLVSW

CD320 = target: T2, CD320 (Homo sapiens, UniProt Q9NPF0); format: binding
T2 sequence (Q9NPF0 36-229 limits assumed): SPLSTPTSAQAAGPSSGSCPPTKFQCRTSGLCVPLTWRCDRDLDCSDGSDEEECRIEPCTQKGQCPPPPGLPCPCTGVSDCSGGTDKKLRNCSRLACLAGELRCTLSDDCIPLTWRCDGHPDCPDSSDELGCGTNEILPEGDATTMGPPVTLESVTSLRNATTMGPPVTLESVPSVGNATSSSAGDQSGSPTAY

transcobalamin 2 (TCN2) [2] = target: T1, transcobalamin 2 (TCN2); format: binding; remark: listed apart in the source
Recombinant human TCN2 = target: T3, Recombinant human TCN2 (human, UniProt P20062 19-427)
T3 sequence (looked up): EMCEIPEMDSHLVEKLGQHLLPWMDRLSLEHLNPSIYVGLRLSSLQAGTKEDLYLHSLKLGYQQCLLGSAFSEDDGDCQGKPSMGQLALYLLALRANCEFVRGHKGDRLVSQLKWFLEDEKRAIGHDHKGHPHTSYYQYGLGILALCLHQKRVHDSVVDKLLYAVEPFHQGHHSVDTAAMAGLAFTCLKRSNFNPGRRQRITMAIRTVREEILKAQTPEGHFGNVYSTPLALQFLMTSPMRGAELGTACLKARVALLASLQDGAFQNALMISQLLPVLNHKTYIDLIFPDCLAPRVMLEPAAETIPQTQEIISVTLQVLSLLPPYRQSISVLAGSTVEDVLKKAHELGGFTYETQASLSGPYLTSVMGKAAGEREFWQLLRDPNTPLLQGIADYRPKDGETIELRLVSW

## CCCCCCCCc1ccc(CCC(N)(CO)CO)cc1 [FTY720]
Transcobalamin 2 (TCN2) [1]
  Kd: 0.24 nM

## CCCCCCCCCCCCC/C=C/[C@@H](O)[C@@H](N)COP(=O)(O)O [S1P]
CD320
  Kd: 11.8 nM

## CCCCCCCCCCCCC/C=C/[C@@H](O)[C@@H](N)CO [sphingosine]
Transcobalamin 2 (TCN2) [2]
  Kd: 0.14 nM

## Vitamin B12
Transcobalamin 2 (TCN2) [2]
  Kd: 0.19 nM

B1: Recombinant human CD320 (receptor, UniProt Q9NPF0 36-229, looked up)
chain: SPLSTPTSAQAAGPSSGSCPPTKFQCRTSGLCVPLTWRCDRDLDCSDGSDEEECRIEPCTQKGQCPPPPGLPCPCTGVSDCSGGTDKKLRNCSRLACLAGELRCTLSDDCIPLTWRCDGHPDCPDSSDELGCGTNEILPEGDATTMGPPVTLESVTSLRNATTMGPPVTLESVPSVGNATSSSAGDQSGSPTAY
Recombinant human TCN2
  Kd: 1.86 nM
